Legend:
test panelists [1] = assay: Round table qualitative assessment of quality of sweetness and undesirable attributes, scale of 1-10; assay type: in vivo; conditions: for Quality of sweetness (higher better): scale 1-10, 10 = 5% sucrose, 1 = 500 ppm RebA; for Off taste (lower better): scale 1-10, 10 = 500 ppm RebA, 1 = 5% sucrose
Method: Round table evaluations were performed with 7 test panelists. Equal sweet 5 SEV concentrations in neutral pH water were made for Thaumatin II (purity greater than 90%), Rebaudioside A, and Rebaudioside M. These equal sweet solutions were also mixed at 50% of Thaumatin II and 50% Reb M or RebA and compared to the individual components. All solutions were coded and blinded from panelists. Panelists were asked to provide a qualitative assessment on a scale of 1-10 of the quality of sweetness (10 being the highest quality of sweetness) and undesirable attributes (10 being most undesirable) of each solution using a 5% sucrose and 500 ppm RebA solutions as controls. For the quality of sweetness, the score 10 was assigned to 5% sucrose. Vice versa, the score 1 was assigned to and 500 ppm RebA. For undesirable attributes, the scores 10 and 1 were assigned to 500 ppm RebA and 5% sucrose, respectively.

test panelists [2] = assay: Round table evaluation of sweetness intensity (SEV) against sucrose reference samples; assay type: in vivo; conditions: 7 panelists, mean
Method: Round table evaluations were performed with 7 test panelists. Equal sweet 5 SEV concentrations in neutral pH water were made for Thaumatin II (purity greater than 90%), Rebaudioside A, and Rebaudioside M. These equal sweet solutions were also mixed at 50% of Thaumatin II and 50% Reb M or RebA and compared to the individual components. The components of the test compositions are described in the below tables. The mixed compositions were calculated using the Beidler mixture equation for the sweeteners. The Beidler mixture equation for sweeteners is as follows: [formula] The concentration of each component in the mixture in ppm is divided by SEV (c/R) and is plotted against concentration, c. The slope of the linear regression is the maximum SEV (Rmax). The y-intercept of the linear regression multiplied by Rmax is the half-maximal sweetness concentration, 1/K. Rmax and 1/K are the two parameters used in the Beidler equation. Mixtures were tasted in comparison to reference samples for the panelists to determine SEV values. References samples were 3%, 4%, 5%, 6%, 7%, and 8% sucrose in neutral pH water. The test samples were served in 2 ounce soufflé cups (approximately 60 ml) coded with 3-digit codes at room temperature. A two minute wait period between samples was enforced. Water and unsalted crackers was available for the panelists to clear their palates before and during testing. Results were collected for calculating approximate SEV level of each test sample.

Q: For C=C1C[C@@]23CC[C@H]4[C@@](C)(CCC[C@@]4(C)C(=O)O[C@@H]4O[C@H](CO)[C@@H](O)[C@H](O)[C@H]4O)[C@@H]2CC[C@]1(O[C@@H]1O[C@H](CO)[C@@H](O)[C@H](O[C@@H]2O[C@H](CO)[C@@H](O)[C@H](O)[C@H]2O)[C@H]1O[C@@H]1O[C@H](CO)[C@@H](O)[C@H](O)[C@H]1O)C3 [Rebaudioside A], which “Quality of sweetness (higher better)” value (test panelists [1]; 260 ppm in neutral pH water) is on record?
A: 5.6

Q: And the “Off taste (lower better)” value (test panelists [1]; 260 ppm in neutral pH water)?
A: 6.7

Q: And the “Sweetness intensity determined, SEV” value (test panelists [2]; 260 ppm in neutral pH water)?
A: 4.8 SEV

Q: How did the “Quality of sweetness (higher better)” value (test panelists [1]; 155 ppm in neutral pH water) turn out when C=C1C[C@@]23CC[C@H]4[C@@](C)(CCC[C@@]4(C)C(=O)O[C@@H]4O[C@H](CO)[C@@H](O)[C@H](O[C@@H]5O[C@H](CO)[C@@H](O)[C@H](O)[C@H]5O)[C@H]4O[C@@H]4O[C@H](CO)[C@@H](O)[C@H](O)[C@H]4O)[C@@H]2CC[C@]1(O[C@@H]1O[C@H](CO)[C@@H](O)[C@H](O[C@@H]2O[C@H](CO)[C@@H](O)[C@H](O)[C@H]2O)[C@H]1O[C@@H]1O[C@H](CO)[C@@H](O)[C@H](O)[C@H]1O)C3 [Rebaudioside M] was run?
A: 8.8

Q: What about the “Off taste (lower better)” value (test panelists [1]; 155 ppm in neutral pH water) of the same molecule?
A: 2.5

Q: What about the “Quality of sweetness and off taste, in words” value (test panelists [1]; equal sweet 5 SEV solutions and their 50%/50% mixtures in neutral pH water) of the same molecule?
A: very mild artificial off taste

Q: What about the “Sweetness intensity determined, SEV” value (test panelists [2]; 155 ppm in neutral pH water) of the same molecule?
A: 5.3 SEV

B1: Thaumatin II: oligopeptide or protein of SEQ ID NO: 2; recombinant, purity greater than 90%, purified from transgenic Nicotiana tabacum plants (protein, listed as Thaumatococcus daniellii)
chain: ATFEIVNRCSYTVWAAASKGDAALDAGGRQLNSGESWTINVEPGTKGGKIWARTDCYFDDSGRGICRTGDCGGLLQCKRFGRPPTTLAEFSLNQYGKDYIDISNIKGFNVPMDFSPTTRGCRGVRCAADIVGQCPAKLKAPGGGCNDACTVFQTSEYCCTTGKCGPTEYSRFFKRLCPDAFSYVLDKPTTVTCPGSSNYRVTFCPTA
Q: What does the source list for B1?
A: Quality of sweetness (higher better) (test panelists [1]; 7 ppm in neutral pH water): 6.5; Off taste (lower better) (test panelists [1]; 7 ppm in neutral pH water): 4.7; Sweetness intensity determined, SEV (test panelists [2]; 7 ppm in neutral pH water): 4.6 SEV
